The term pEC50 denotes the negative decadic logarithm of the EC50, by convention in mol/L.

pEC50: −log10 of the molar value. No end group written: not given here.

Assay [1] concerns C. elegans. Nature of the assay: Drop avoidance assay of ascr #8. Type of assay: in vivo. Particulars: in words. As to the method:
Because the defect in male response to ascr #8 was significant, and the SWAA was designed to detect attractive behaviors, it was sought to determine if flp-3 loss-of-function (lof) animals were in fact avoiding ascr #8. Using a previously described drop avoidance assay, forward moving animals were exposed to a drop of either vehicle control or ascr #8 and scored the avoidance index. […] The hermaphroditic behavior was unaffected by the loss of flp-3. (FIG. 12F).
Assays were performed as described previously in Chute, C. D. & Srinivasan, J. Semin. Cell Dev. Biol. 33, 18-24 (2014); Chute, C. D. et al. Nat. Commun. 10, 3186 (2019); and Hilliard, M. A. et al., EMBO J. 23, 1101-1111 (2004). Fifty to sixty L4 worms were segregated by sex and stored at 20° C. for 5 h to overnight to be assayed as young adults. One to four hours prior to the assay, the lids of unseeded plates were tilted to allow any excess moisture to evaporate off the plates. At the time of the assay, 10 or more animals were transferred onto each of the dried, unseeded plates. A drop of either water or 1 μM ascr #8 was placed on the tail of forward moving animals, and their response was scored as either an avoidance response, or no response. The total number of avoidances was divided by the total number of drops to generate an avoidance index for that plate. This was repeated for at least 10 plates over at least three different days.

In assay [2] the test system is C. elegans. The experiment in a line: Single worm attraction assay (SWAA) of ascarosides. Format: in vivo. Particulars: for dwell time in cue vs vehicle: 1 μM, in words. As to the method:
The spot retention assay was adapted to allow for better characterization of individual worm behavior and robust interrogation of attraction to small molecules. The attractiveness of 1 μM ascr #8 (FIG. 11A) were compared across multiple strains of C. elegans (the wild-type N2 strain, the high incidence of male him-5 and him-8 strains, and the chemosensory cilia defective osm-3), using the novel behavioral assay, the single worm attraction assay (SWAA) (FIG. 11A). In this assay, individual animals were placed directly into the spot of the ascaroside cue (A) while simultaneously removing any potential of male-male contact. […] Likewise, a vehicle control (V) is also included, to account of any changes in dwell time that are driven by the components of the vehicle. The outer forty wells of a 48-well suspension culture plate (Olympus Plastics, Cat #: 25-103) were seeded with 200 μL of standard NGM agar. To prepare the plates for the assay, they were acclimated to room temperature, at which point each well was seeded with 65 μL of OP50 E. coli. The assay plates were then transferred to a 37° C. incubator with the lid tilted for 4 h to allow the bacterial culture to dry on the agar. Once the bacterial culture dried, the lid was replaced the plate was stored at 20° C. until used in the assay. Fifty to sixty L4 worms were segregated by sex and stored at 20° C. for 5 h to overnight to be assayed as young adults. 0.8 μL of either vehicle control or ascaroside #8 was placed in the center of the well corresponding to that condition within the quadrant being tested, following a random block design (FIG. 11A). A single worm was placed in each of the 10 wells to be assayed, and the plate was transferred to a light source and camera and recorded for 15 m. […] Raw dwell time values were calculated by subtracting the time a worm exited the cue (center of the well in spatial controls), from the time it entered, as in the SRA. This was determined per visit, and the average dwell time was calculated for each animal in the quadrant. Averages of the four-quadrant means were determined per plate, and a minimum of five plates were assayed per strain/condition. The mean raw dwell time across five plates was calculated and used for statistical analyses and graphical display. […] An “attractive visit” was first determined for each plate as any visit greater than two standard deviations above the mean dwell time within the vehicle control for that plate. Any individual visit meeting this threshold was scored as a “1”, and any below was scored a “0”. The percent visits per-worm that were attractive was determined, and the average of each quadrant taken. […] The average percent of attractive visits across five plates was calculated and used for statistical analyses and graphical display.

The next assay has as its target T1, NPR-10B (Caenorhabditis elegans, UniProt Q6EUU1).
T1 sequence (Q6EUU1 1-362): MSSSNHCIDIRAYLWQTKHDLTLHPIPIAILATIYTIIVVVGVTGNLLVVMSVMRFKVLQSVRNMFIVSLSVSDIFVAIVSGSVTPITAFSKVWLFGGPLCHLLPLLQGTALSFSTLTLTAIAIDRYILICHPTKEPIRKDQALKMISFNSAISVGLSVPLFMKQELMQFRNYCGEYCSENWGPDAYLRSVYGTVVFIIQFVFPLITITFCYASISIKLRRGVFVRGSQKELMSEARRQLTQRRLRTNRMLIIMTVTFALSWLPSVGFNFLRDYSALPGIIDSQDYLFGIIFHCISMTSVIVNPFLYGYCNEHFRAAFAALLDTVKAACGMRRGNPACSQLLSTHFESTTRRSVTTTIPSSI
Nature of the assay: In vitro GPCR activation assay (CHO-K1 cells, aequorin, human Gα16), NPR-10B. Type of assay: cell-based, C. elegans. The settings on record: in words. As to the method:
(§1) Using Chinese hamster ovarian (CHO) cell cultures stably expressing the promiscuous G protein, Gα16, and the calcium reporter, aequorin, it was observed that both isoforms of NPR-10 are activated by seven of the ten FLP-3 peptides, with half-maximal effective concentrations (EC50) in the nM range (FIG. 14A-FIG. 14H, Table V). […] This peptide contains an R-to-K mutation within the C-terminal motif, which may explain the lack of receptor activation.
(§2) The GPCR activation assay was performed as previously described Van Sinay, E. et al. Proc. Natl Acad. Sci. USA 114, E4065-e4074 (2017) and Peymen, K. et al. PLoS Genet. 15, e1007945 (2019). Briefly, npr-10 and frpr-16 cDNAs were cloned into the pcDNA3.1 TOPO expression vector (Thermo Fisher Scientific). A CHO-K1 cell line (PerkinElmer, ES-000-A24) stably expressing apo-aequorin targeted to the mitochondria (mtAEQ) and human Gα16 was transiently transfected with the receptor cDNA construct or the empty pcDNA3.1 vector using Lipofectamine LTX and Plus reagent (Thermo Fisher Scientific). Cells were shifted to 28° C. one day later and allowed to incubate for 24 h. On the day of the assay, cells were collected in BSA medium (DMEM/Ham's F12 with 15 mM HEPES, without phenol red, 0.1% BSA) and loaded with […] coelenterazine h (Thermo Fisher Scientific) for 4 h at room temperature. The incubated cells were then added to synthetic peptides dissolved in DMEM/BSA, and luminescence was measured for 30 s at […] using a Mithras LB940 (Berthold Technologies) or MicroBeta LumiJet luminometer (PerkinElmer). After 30 s of readout, 0.1% triton X-100 was added to lyse the cells, resulting in a maximal calcium response that was measured for 10 s. After initial screening, concentration-response curves were constructed for HPLC-purified FLP-3 peptides by subjecting the transfected cells to each peptide in a concentration range from 1 pM to 10 μM. Cells transfected with an empty vector were used as a negative control. Assays were performed in triplicate on at least two independent days. Concentration-response curves were fitted using Prism v. 7 (nonlinear regression analysis with a sigmoidal concentration-response equation).

The target of a further assay is T2, FRPR-16 (Caenorhabditis elegans, UniProt Q21957).
T2 sequence (Q21957 1-340): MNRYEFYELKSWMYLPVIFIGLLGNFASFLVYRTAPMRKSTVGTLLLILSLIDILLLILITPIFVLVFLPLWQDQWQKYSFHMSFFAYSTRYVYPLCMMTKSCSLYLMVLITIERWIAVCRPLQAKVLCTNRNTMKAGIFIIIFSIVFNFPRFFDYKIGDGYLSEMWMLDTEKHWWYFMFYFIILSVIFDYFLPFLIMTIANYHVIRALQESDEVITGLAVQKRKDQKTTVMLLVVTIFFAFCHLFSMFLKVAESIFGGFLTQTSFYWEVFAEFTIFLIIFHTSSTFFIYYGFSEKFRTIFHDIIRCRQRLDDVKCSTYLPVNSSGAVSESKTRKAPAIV
Nature of the assay: In vitro GPCR activation assay (CHO-K1 cells, aequorin, human Gα16), FRPR-16. Format: cell-based, C. elegans. Particulars: calcium/aequorin luminescence in transfected CHO-K1 cells. As to the method:
as §2

The next assay concerns NPR-10A. Nature of the assay: In vitro GPCR activation assay (CHO-K1 cells, aequorin, human Gα16), NPR-10A. Type of assay: cell-based, C. elegans. The settings on record: in words. As to the method:
as §1
The GPCR activation assay was performed as previously described Van Sinay, E. et al. Proc. Natl Acad. Sci. USA 114, E4065-e4074 (2017) and Peymen, K. et al. PLoS Genet. 15, e1007945 (2019). Briefly, npr-10 and frpr-16 cDNAs were cloned into the pcDNA3.1 TOPO expression vector (Thermo Fisher Scientific). A CHO-K1 cell line (PerkinElmer, ES-000-A24) stably expressing apo-aequorin targeted to the mitochondria (mtAEQ) and human Gα16 was transiently transfected with the receptor cDNA construct or the empty pcDNA3.1 vector using Lipofectamine LTX and Plus reagent (Thermo Fisher Scientific). […] The incubated cells were then added to synthetic peptides dissolved in DMEM/BSA, and luminescence was measured for 30 s at […] using a Mithras LB940 (Berthold Technologies) or MicroBeta LumiJet luminometer (PerkinElmer). After 30 s of readout, 0.1% triton X-100 was added to lyse the cells, resulting in a maximal calcium response that was measured for 10 s. […]

As to `C[C@H](CC/C=C/C(=O)Nc1ccc(C(=O)O)cc1)O[C@@H]1O[C@@H](C)[C@H](O)C[C@H]1O` [ascr #8], the “avoidance of the cue” value in the assay on C. elegans [1] (hermaphrodites) is “avoid”; with C. elegans [1] (wild-type males, 1 μM ascr #8) it was “did not avoid the cue”. Moreover, the “dwell time in cue vs vehicle” value is listed as “significantly less time in ascr #8 than the vehicle” with C. elegans [2] (hermaphrodites, all strains); “significant increase in the amount of time spent within ascr #8 spot compared to the vehicle control” in the assay on C. elegans [2] (males, wild-type and him strains). The “attractive visits to the cue” value with C. elegans [2] (males, 1 μM ascr #8) is reported as 30-45%.

For the molecule “SADDSAPFGTMRF-NH2 [FLP-3-8, SADDSAPFGTMRFamide]”, the “activation of NPR-10 (NPR-10B)” value on NPR-10B is reported as “did not activate”. Moreover, the pEC50 on FRPR-16 was 5.80. For the same molecule, the “activation of NPR-10A” value in the assay with NPR-10A was “did not activate”.

The values above are taken from patent US20220380430A1, “Non-Transgenic Functional Rescue of Neuropeptides” (Worcester Polytechnic Institute, priority 2021, published 2022).
